In patent US6610853B1, “N-(phenylsulfonyl)picolinamide derivatives, process for producing the same, and herbicide” (Kureha Kagaku Kogyo K.K., priority 2000, dated 2003):

What was measured:
Assay in all cases: Test on herbicidal activity by foliar application
Type in all cases: in vivo
Details in all cases: foliar spray, 1 kg/ha, plants at 1-2 leaf stage in pots, evaluated 14 days after spraying
Abutilon theophrasti = tested on: Abutilon theophrasti
Procedure: (§1) Test on Herbicidal Activity by Foliar Application: Herbicidal solutions of each test compounds, which were prepared by dissolving at predetermined concentrations such a wettable powder of the test compound as that described in the above Formulation Example, were sprayed at dosages of 1 kg/ha over foliar parts of Amaranthus retroflexus, Bidens pilosa, Sinapis arvensis, Stellaria media, Solanum nigrum, Abutilon theophrasti, Convolvulus arvensis, Matricaria chamomilla, Galium aparine, Veronica hederaefolia, and Setaria viridis (each test plant is 1-2 leaf stage) which were grown in pots. 14 days latter after spraying, its herbicidal activity was evaluated in accordance with the below-described system. Herbicidal Activity 1: less than 30% inhibition 2: 30% or more-50% inhibition 3: 50% or more-70% inhibition 4: 70% or more-90% inhibition 5: 90% or more inhibition

Matricaria chamomilla = tested on: Matricaria chamomilla
Procedure: as §1

Sinapis arvensis = tested on: Sinapis arvensis
Procedure: as §1

Convolvulus arvensis = tested on: Convolvulus arvensis
Procedure: as §1

Bidens pilosa = tested on: Bidens pilosa
Procedure: as §1

Veronica hederaefolia = tested on: Veronica hederaefolia
Procedure: as §1

Amaranthus retroflexus = tested on: Amaranthus retroflexus
Procedure: as §1

Solanum nigrum = tested on: Solanum nigrum
Procedure: as §1

Galium aparine = tested on: Galium aparine
Procedure: as §1

Stellaria media = tested on: Stellaria media
Procedure: as §1

Setaria viridis = tested on: Setaria viridis
Procedure: as §1

SMILES | Herbicidal activity, Abutilon theophrasti (Abutilon theophrasti) | Herbicidal activity, Matricaria chamomilla (Matricaria chamomilla) | Herbicidal activity, Sinapis arvensis (Sinapis arvensis) | Herbicidal activity, Convolvulus arvensis (Convolvulus arvensis) | Herbicidal activity, Bidens pilosa (Bidens pilosa) | Herbicidal activity, Veronica hederaefolia (Veronica hederaefolia) | Herbicidal activity, Amaranthus retroflexus (Amaranthus retroflexus) | Herbicidal activity, Solanum nigrum (Solanum nigrum) | Herbicidal activity, Galium aparine (Galium aparine) | Herbicidal activity, Stellaria media (Stellaria media) | Herbicidal activity, Setaria viridis (Setaria viridis)
COc1ccc(C(=O)NS(=O)(=O)c2ccccc2S(=O)(=O)N(C)C)nc1C [Compound I-859, N-[[2-(N,N-Dimethylaminosulfonyl)phenyl]-sulfonyl]-6-methyl-5-methoxy-2-pyridinecarboxamide] | 5 (90% or more inhibition) | 5 (90% or more inhibition) | 5 (90% or more inhibition) | 4 (70% or more-90% inhibition) | 5 (90% or more inhibition) | 5 (90% or more inhibition) | 5 (90% or more inhibition) | 5 (90% or more inhibition) | 5 (90% or more inhibition) | 5 (90% or more inhibition) | 5 (90% or more inhibition)
COc1ccc(C(=O)NS(=O)(=O)c2ccccc2OC(F)(F)F)nc1Br [Compound I-805, N-[[2-Trifluoromethoxyphenyl]sulfonyl]-6-bromo-5-methoxy-2-pyridinecarboxamide] | 5 (90% or more inhibition) | 5 (90% or more inhibition) | 5 (90% or more inhibition) | 5 (90% or more inhibition) | 5 (90% or more inhibition) | 4 (70% or more-90% inhibition) | 5 (90% or more inhibition) | 5 (90% or more inhibition) | 5 (90% or more inhibition) | 5 (90% or more inhibition) | 4 (70% or more-90% inhibition)
O=C(NS(=O)(=O)c1c(Cl)cccc1Cl)c1cc(Cl)cc(Cl)n1 [Compound I-557, 4,6-Dichloro-N-[(2,6-Dichlorophenyl)sulfonyl]-pyridine-2-carboxamide] | 5 (90% or more inhibition) | 5 (90% or more inhibition) | 5 (90% or more inhibition) | 5 (90% or more inhibition) | 5 (90% or more inhibition) | 5 (90% or more inhibition) | 5 (90% or more inhibition) | 5 (90% or more inhibition) | 5 (90% or more inhibition) | 5 (90% or more inhibition) | 5 (90% or more inhibition)
COC(=O)c1ccccc1S(=O)(=O)NC(=O)c1ccc(OC)c(OC)n1 [Compound I-259, 2-[[[(5,6-Dimethoxypyridin-2-yl)carbonyl]-amino]sulfonyl]benzoic Acid Methyl Ester] | 5 (90% or more inhibition) | 4 (70% or more-90% inhibition) | 5 (90% or more inhibition) | 3 (50% or more-70% inhibition) | 4 (70% or more-90% inhibition) | 4 (70% or more-90% inhibition) | 5 (90% or more inhibition) | 4 (70% or more-90% inhibition) | 5 (90% or more inhibition) | 5 (90% or more inhibition) | 4 (70% or more-90% inhibition)
COC(=O)c1ccccc1S(=O)(=O)NC(=O)c1cccc(Cl)n1 [Compound I-231, 2-[[[(6-Chloropyridin-2-yl)carbonyl]amino]-sulfonyl]benzoic Acid Methyl Ester] | 5 (90% or more inhibition) | 5 (90% or more inhibition) | 5 (90% or more inhibition) | 4 (70% or more-90% inhibition) | 5 (90% or more inhibition) | 5 (90% or more inhibition) | 5 (90% or more inhibition) | 5 (90% or more inhibition) | 5 (90% or more inhibition) | 5 (90% or more inhibition) | 5 (90% or more inhibition)
COC(=O)c1ccccc1S(=O)(=O)NC(=O)c1ccc(OC)cn1 [Compound I-234, 2-[[[(5-Methoxypyridin-2-yl)carbonyl]amino]-sulfonyl]benzoic Acid Methyl Ester] | 5 (90% or more inhibition) | 5 (90% or more inhibition) | 5 (90% or more inhibition) | 4 (70% or more-90% inhibition) | 5 (90% or more inhibition) | 4 (70% or more-90% inhibition) | 5 (90% or more inhibition) | 5 (90% or more inhibition) | 4 (70% or more-90% inhibition) | 5 (90% or more inhibition) | 4 (70% or more-90% inhibition)
COC(=O)c1ccccc1S(=O)(=O)NC(=O)c1ccc(OC)c(Cl)n1 [Compound I-258, 2-[[[(6-Chloro-5-methoxypyridin-2-yl)carbonyl]-amino]sulfonyl]benzoic Acid Methyl Ester] | 5 (90% or more inhibition) | 5 (90% or more inhibition) | 5 (90% or more inhibition) | 5 (90% or more inhibition) | 5 (90% or more inhibition) | 4 (70% or more-90% inhibition) | 5 (90% or more inhibition) | 5 (90% or more inhibition) | 5 (90% or more inhibition) | 5 (90% or more inhibition) | 5 (90% or more inhibition)
O=C(NS(=O)(=O)c1ccccc1OC(F)(F)F)c1cccc(Cl)n1 [Compound I-771, N-[[2-Trifluoromethoxyphenyl]sulfonyl]-6-chloro-2-pyridinecarboxamide] | 5 (90% or more inhibition) | 5 (90% or more inhibition) | 5 (90% or more inhibition) | 4 (70% or more-90% inhibition) | 5 (90% or more inhibition) | 5 (90% or more inhibition) | 5 (90% or more inhibition) | 5 (90% or more inhibition) | 5 (90% or more inhibition) | 5 (90% or more inhibition) | 1 (less than 30% inhibition)
COc1ccc(C(=O)NS(=O)(=O)c2ccccc2S(C)(=O)=O)nc1Br [Compound I-819, 6-Bromo-5-methoxy-N-[[2-(methylsulfonyl)-phenyl]sulfonyl]-2-pyridinecarboxamide] | 5 (90% or more inhibition) | 5 (90% or more inhibition) | 5 (90% or more inhibition) | 4 (70% or more-90% inhibition) | 5 (90% or more inhibition) | 3 (50% or more-70% inhibition) | 5 (90% or more inhibition) | 5 (90% or more inhibition) | 4 (70% or more-90% inhibition) | 5 (90% or more inhibition) | 5 (90% or more inhibition)
COc1cc(Cl)nc(C(=O)NS(=O)(=O)c2ccccc2S(=O)(=O)N(C)C)c1 [Compound I-885, 6-Chloro-4-methoxy-N-[[2-(N,N-dimethylaminosulfonyl)phenyl]sulfonyl]-2-pyridinecarboxamide] | 5 (90% or more inhibition) | 5 (90% or more inhibition) | 5 (90% or more inhibition) | 5 (90% or more inhibition) | 5 (90% or more inhibition) | 4 (70% or more-90% inhibition) | 5 (90% or more inhibition) | 5 (90% or more inhibition) | 5 (90% or more inhibition) | 5 (90% or more inhibition) | 5 (90% or more inhibition)
